{"source": "paper PMC9959048", "about": "“Lipidation of Naturally Occurring α-Helical Antimicrobial Peptides as a Promising Strategy for Drug Design” (International Journal of Molecular Sciences, 2023)", "key": {"POPC liposomes": {"system": "POPC liposomes", "test": "CD, α-helix content in POPC liposomes", "assay_type": "physicochemical", "conditions": "25 °C, peptide 0.15 mg/mL, 1.3 mM POPC", "experimental": "(§1) Large unilamellar vesicles (LUV) were obtained by extrusion of MLV liposomes through polycarbonate membrane filters with a pore diameter of 100 nm (Whatman International Ltd., Kent, UK) using a mini-extruder (Avanti Polar Lipids, Inc., Alabaster, AL, USA).\n(§2) CD experiments were carried out at 25 °C using a Jasco J-815 spectropolarimeter in the wavelength range 185–260 nm. The concentration of the lipopeptides was 0.15 mg/mL. The CD spectra were recorded in water, PBS (pH 7.4), 1.3 mM POPC and 1.3 mM POPG. The results are plotted as the mean molar ellipticity per one amino acid residue (MRME, deg cm^2 dmol^−1) as a function of the wavelength (nm). Additionally, we performed a conformational analysis of the selected compounds in the presence of S. aureus cells. […] The mixtures were then incubated for 2 h before recording the CD spectra.\n(§3) The percentage of the α-helical structure was calculated based on the mean molar ellipticity at 222 nm using the formula: fH=θ222−3000/−36000−3000·100% where θ222 corresponds to the value of the mean molar ellipticity at a wavelength of 222 nm."}, "[1]": {"test": "Dynamic light scattering of lipopeptide assemblies", "assay_type": "physicochemical", "conditions": "DLS, sonicated 10 min, incubated 1 h, 90° side scatter", "experimental": "The hydrodynamic diameters of the lipopeptide nanoaggregates were examined by the Litesizer 500 (Anton-Paar GmbH, Graz, Austria) at 25 °C. The measurements were carried out at various lipopeptide concentrations ranging from 0.5 to 2 mM and from 0.25 to 2 mM, in water and PBS, respectively. Two-fold serial dilutions were used to obtain the sequential concentrations. Each sample was sonicated for 10 min followed by incubation for 1 h at 25 °C and transferred to the polystyrene cuvette. The detector was positioned at a side scatter position (90°). The analysis of the obtained results and report generation was performed with KalliopeTM software (Anton-Paar GmbH, Graz, Austria)."}, "[2]": {"system": "human breast cancer cells (MCF-7 line, ATCC)", "test": "MTT cytotoxicity assay", "assay_type": "cell-based", "conditions": "IC50 against HaCaT divided by IC50 for MCF-7", "experimental": "(§4) The prepared plates were further incubated for 48 h. […] The control cell viability was assumed to be 100%. Three independent experiments were carried out in three repetitions."}, "[3]": {"system": "human prostate cancer cells (PC3 line, ATCC)", "test": "MTT cytotoxicity assay", "assay_type": "cell-based", "conditions": "IC50 against HaCaT divided by IC50 for PC3", "experimental": "as §4"}, "S. epidermidis PCM2118": {"system": "S. epidermidis PCM2118", "assay_type": "cell-based, Staphylococcus epidermidis", "conditions": "PCM2118, 24 h", "summary_of_the_method": "(§5)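 MIC, serial microdilution (CLSI). Bacteria: MHB, 37 °C, 24 h. Fungi: RPMI-1640/MOPS + 2% glucose, 35 °C, 24 h. OD600 read; % growth inhibition vs untreated control (100%) and medium-only blank (0%). n = 3.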"}, "S. epidermidis PCM521": {"system": "S. epidermidis PCM521", "assay_type": "cell-based, Staphylococcus epidermidis", "conditions": "PCM521, 24 h", "summary_of_the_method": "as §5"}, "C. parapsilosis CCM 8260": {"system": "C. parapsilosis CCM 8260", "assay_type": "cell-based, Candida parapsilosis", "conditions": "CCM 8260, 24 h", "summary_of_the_method": "as §5"}, "C. albicans PCM2566": {"system": "C. albicans PCM2566", "assay_type": "cell-based, Candida albicans", "conditions": "PCM2566, 24 h", "summary_of_the_method": "as §5"}, "E. coli PCM2057": {"system": "E. coli PCM2057", "assay_type": "cell-based, Escherichia coli", "conditions": "PCM2057, 24 h", "summary_of_the_method": "as §5"}, "POPG liposomes": {"system": "POPG liposomes", "test": "CD, α-helix content in POPG liposomes", "assay_type": "physicochemical", "conditions": "25 °C, peptide 0.15 mg/mL, 1.3 mM POPG, from ellipticity at 222 nm", "experimental": "as §1, §2, §3"}, "S. aureus cells": {"system": "S. aureus cells", "test": "CD, α-helix content in the presence of S. aureus cells", "assay_type": "physicochemical, Staphylococcus aureus", "conditions": "for α-Helix percentage, Staphylococcus aureus: peptide 0.15 mg/mL, phosphate buffer 10 mM pH 7.0, 2 h incubation", "experimental": "as §2, §3"}, "C. krusei CCM8271": {"system": "C. krusei CCM8271", "assay_type": "cell-based, Candida krusei", "conditions": "CCM8271, 24 h", "summary_of_the_method": "as §5"}, "C. glabrata CCM8270": {"system": "C. glabrata CCM8270", "assay_type": "cell-based, Candida glabrata", "conditions": "CCM8270, 24 h", "summary_of_the_method": "as §5"}}, "note": "Residues, ends and D or L forms follow the SMILES beside them. *: point of attachment. Octanoyl = CCCCCCCC(=O)*"}
{"smiles": "CCCCCCCC(=O)N[C@H](C(=O)N[C@@H](CCCCN)C(=O)N[C@@H](CCCCN)C(=O)N[C@H](C(=O)N[C@@H](CC(C)C)C(=O)N[C@@H](CO)C(=O)N[C@@H](CCCCN)C(=O)N[C@H](C(=O)N[C@@H](CCCCN)C(=O)N[C@@H](CCCCN)C(=O)N[C@@H](CC(C)C)C(=O)N[C@@H](CC(C)C)C(=O)N[C@@H](CCCCN)C(N)=O)[C@@H](C)CC)[C@@H](C)CC)[C@@H](C)CC", "note": "[C8-LK6] (Octanoyl-IKKILSKIKKLLK-NH2)", "values": [{"measurement": "θ222/θ208, POPC", "setting": "POPC liposomes", "result": 0.82}, {"measurement": "α-Helix percentage, POPC", "setting": "POPC liposomes; from ellipticity at 222 nm", "result": 46, "unit": "%"}, {"measurement": "hydrodynamic diameter, peak of highest scattering intensity", "setting": "[1]; 0.25 mM in PBS pH 7.4, 25 °C", "result": "2596 ± 512", "unit": "nm"}, {"measurement": "hydrodynamic diameter, peak of highest scattering intensity", "setting": "[1]; 0.5 mM salt-free aqueous solution, 25 °C", "result": "327 ± 102", "unit": "nm"}, {"measurement": "hydrodynamic diameter", "setting": "[1]; 2 mM in PBS pH 7.4, 25 °C", "result": "3047 ± 750", "unit": "nm"}, {"measurement": "SI MCF-7", "setting": "[2]", "result": 3.44}, {"measurement": "SI PC3", "setting": "[3]", "result": 1.50}, {"measurement": "MIC, S. epidermidis PCM2118", "setting": "S. epidermidis PCM2118", "result": 6.25, "unit": "µg/mL"}, {"measurement": "MIC, S. epidermidis PCM521", "setting": "S. epidermidis PCM521", "result": 6.25, "unit": "µg/mL"}, {"measurement": "MIC, C. parapsilosis CCM 8260", "setting": "C. parapsilosis CCM 8260", "result": 6.25, "unit": "µg/mL"}, {"measurement": "MIC, C. albicans PCM2566", "setting": "C. albicans PCM2566", "result": 12.5, "unit": "µg/mL"}, {"measurement": "MIC, E. coli PCM2057", "setting": "E. coli PCM2057", "result": ">50", "unit": "µg/mL"}, {"measurement": "α-Helix percentage, POPG", "setting": "POPG liposomes", "result": 24, "unit": "%"}, {"measurement": "θ222/θ208, Staphylococcus aureus", "setting": "S. aureus cells; OD0.1 bacterial suspension", "result": 1.26}, {"measurement": "α-Helix percentage, Staphylococcus aureus", "setting": "S. aureus cells; OD0.1 bacterial suspension", "result": 22, "unit": "%"}, {"measurement": "θ222/θ208, Staphylococcus aureus", "setting": "S. aureus cells; OD0.2 bacterial suspension", "result": 0.89}, {"measurement": "α-Helix percentage, Staphylococcus aureus", "setting": "S. aureus cells; OD0.2 bacterial suspension", "result": 17, "unit": "%"}, {"measurement": "θ222/θ208, Staphylococcus aureus", "setting": "S. aureus cells; OD0.5 bacterial suspension", "result": 0.88}, {"measurement": "α-Helix percentage, Staphylococcus aureus", "setting": "S. aureus cells; OD0.5 bacterial suspension", "result": 18, "unit": "%"}, {"measurement": "α-helical structure in the presence of bacterial cells", "setting": "S. aureus cells; S. aureus, various bacterial cell counts of the inoculum", "result": "17–22%"}, {"measurement": "MIC, C. krusei CCM8271", "setting": "C. krusei CCM8271", "result": 6.25, "unit": "µg/mL"}, {"measurement": "MIC, C. glabrata CCM8270", "setting": "C. glabrata CCM8270", "result": 25, "unit": "µg/mL"}]}
